Measured values taken from patent US20260258397A1, “REAGENTS AND SYSTEMS FOR […]” (priority 2023, published 2026).
Values joined by “and” are separate entries in the source; they are usually repeats but may differ in a detail not shown here. Equal entries are not always repeated. Where two headings read alike, the source gives them in different places.

Tests used:
[1] = tested on: PYR1 mutant receptors (ligand-dependent binding to HAB1); assay: Yeast two-hybrid screens and optimization for organophosphate sensors; assay type: cell-based, Arabidopsis
Method: Surviving cells were collected and used in subsequent positive selections for ligand-responsive receptors on SD,-Leu,-Trp,-Ura media supplemented with a specific test chemical (100 μM) for responsiveness to any of the 10-member panel of organophosphate compounds: diazinon, pirimiphos-methyl, azinphos-ethyl, dimethoate, chlorfenvinphos, disulfoton, parathion-methyl, bromophos-methyl, malathion, and monocrotophos; all compounds were purchased form (Sigma-Aldrich). Isolated colonies were tested by regrowth on ligand-containing media and by dose response using X-gal staining and Sanger sequenced (see FIG. 13a-d).
Recombination-based mutagenesis of hit receptors was used to generate subsequent molecular diversity for selection-based optimization experiments, using the same general strategy across all scaffolds utilized. […] The resulting shuffled DNA fragments were cloned into pBD, transformed into E. coli, colonies collected, and plasmids extracted.

PYR1^M/ΔN-HAB1^T+ = molecular target: T1, PYR1^M/ΔN-HAB1^T+ (Arabidopsis thaliana, UniProt O49686, H60P/N90S); assay: PYR1 ELISA-like plate assay, immobilized PYR1^M with biotinylated ΔN-HAB1^T+; assay type: binding; details: for Amax [AU 450 nm]: global parameter
T1 construct: made in house; host or cells: E. coli
T1 sequence (O49686 whole entry H60P/N90S, other chains not shown): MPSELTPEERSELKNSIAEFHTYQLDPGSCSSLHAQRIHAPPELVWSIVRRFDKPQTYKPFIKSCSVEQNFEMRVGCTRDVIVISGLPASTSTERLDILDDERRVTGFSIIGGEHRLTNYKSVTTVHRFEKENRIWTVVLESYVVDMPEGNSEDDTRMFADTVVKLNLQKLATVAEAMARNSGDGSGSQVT
Method: PYR1 was immobilized overnight in clear plates, blocked with KPL milk diluent in buffer CBS ^17 (CBSM). All binding reactions were performed using CBSM. Detection was performed via binding a streptavidin-HRP conjugate to biotinylated ΔN-HAB1^T+ followed by incubation with a commercial TMB reagent. Lower limits of detection (LODs) were determined by linear regression of the response data in the low linear range using the formula LOD=3σy/m, where m is the slope of the response line and σy is the standard error of the y intercept using data combined from biological replicates.
Unconjugated 6×His-MBP-PYR1 variants were immobilized to Microlon clear plates (655081) using 100 μL of CBS without pH modification, at a protein concentration of 100 μg mL^−1, or 1.57 AM at 4° C. overnight. Wells assigned as no PYR controls received only CBS. Plates were sealed using Microseal B adhesive sealers (BioRad MSB-1001). The following day, the solutions were decanted by flicking and all wells were washed twice with 300 μL of CBS. Blocking was performed using 300 μL of KPL milk diluent/concentrate (SeraCare 5140-0011) diluted 1:20 according to manufacturer's protocol, hereafter referred to as CBSM, incubated at room temperature for 2 hours, during which time all other components of the assays were diluted and assembled in 96 well PCR plates (Biorad HSP9601). Binding reactions were assembled from 88 μL of CBSM, 2 AL of 50× concentrate of ligand, dissolved in anhydrous ethanol for ABA, or anhydrous DMSO for all other compounds, with 10 μL of HAB to be added. Blocked plates were decanted by flicking and were washed twice with 300 μL of CBSM, followed by vigorous tamping on a pad of paper towels. The sole exception to the pre-assembly was biotinylated ΔN-HAB1^T+, where 130 AL of ammonium sulfate precipitate was pelleted at 17,000 g for 10 minutes, and the supernatant removed. The pellet was stored on ice until the blocked and washed plates were ready to receive the binding reactions. ΔN-HAB1^T+ was exchanged into CBSM with 1 mM DTT and 1 mM TCEP (CBSM++) using Zeba™ spin desalting columns (Thermo) were equilibrated with CBSM++. ΔN-HAB1^T+ was diluted to 10× the final binding reaction concentration and was immediately added to the pre-assembled assays in PCR plates, which were mixed by pipetting and transferred to the washed, blocked Microlon plates. Microlon plates were transferred to a plate shaker (Heidolph Titramax 1000) for 30 minutes at room temperature with shaking at 800 rpm. Plates were decanted by flicking and were washed three times with 300 μL of CBSM, followed by vigorous tamping on a pad of paper towels. Detection was enabled by addition of 100 μL of streptavidin-horseradish peroxidase (Thermo, SA10001), diluted 1:25,000 into CBSM, incubated in the above plate shaker for 10 minutes. This was decanted by flicking and washed three times with 300 AL of CBSM and by vigorous tamping on a pad of paper towels. Bound HAB was detected through addition of 50 μL 1-Step™ Ultra TMB-ELISA Substrate Solution (Thermo, 34028), incubated in the above plate shaker for 15 minutes (PYR1^M(N90S/H60P) with ABA, PYR1 ^WIN-M and PYR1^4F-M. in specificity assays to avoid overdevelopment of positive control), or for 30 minutes (PYR1^N90S/MANDI with mandipropamid, and PYR1^WIN-M and PYR1^4F-M under ligand titrations). TMB development was quenched by addition of 50 μL of 2M sulfuric acid and plates were read at 450 nm using a Biotek Synergy H1 Hybrid multimode plate reader. Estimates of Kd,eff were performed using Graphpad Prism 8.4.3 using the specific binding with Hill slope nonlinear regression function. Best fits for Kd1 and Kd2 were determined from global nonlinear fitting of the ELISA data using a custom script written in MatLab 2019b.

[2] = Phosphatase activity of 6xHis-MBP-ΔN-HAB1 variants using p-NPP; assay type: biochemical; details: error 1 SEM
Text: FIG. 8: Assessment of stabilized, inactivated 6×His-MBP-ΔN-HAB1 variants. Experiments were repeated on two separate days using independently generated batches of protein. Error bars indicate 1 SD of 3 measurements. Sets of mutations for each variant are noted in Table 7. […] Fluorescence here refers to streptavidin-phycoerythrin.
(§1) Except where noted, all proteins were expressed as N-terminal 6×His-MBP fusions primarily using the medium and method as described in ref. 17. For crystallographic structures, PYL2 and ΔN-HAB1^T+ were expressed in E. coli and purified as described previously 27. Assays for phosphatase activity and apparent Tm, measured via thermal challenge using yeast surface display were performed essentially as previously described 17.

[3] = Apparent Tm of HAB1 variants by thermal challenge and yeast surface display of PYR1^M; assay type: physicochemical; details: YSD of PYR1^M, 500 nM ABA, 20 nM HAB1 variant
Method: as §1
Citrate-buffered saline was first prepared (CBS: 20 mM sodium citrate, 147 mM NaCl, 4.5 mM KCl). A portion of this CBS was removed and this aliquot was made into CBS^+++ by addition of freshly dissolved DTT to 1 mM, TCEP pH 8.0 to 1 mM, and MnCl2 to 10 mM followed by pH adjustment to 8.0 using 1 M sodium hydroxide. CBS^+++ was then sterile filtered and placed on ice. A further portion of CBS was removed and the above reagents were added in addition to bovine serum albumin at 0.2% w/v to produce CBSFF^+++, followed by adjustment of pH to 8.0 with 1 M sodium hydroxide and the solution was again sterile filtered and placed on ice. The remainder (and bulk) of the CBS was used to produce CBSF by addition of 0.1% w/v BSA with adjustment of pH to 8.0 using 1 M sodium hydroxide, and this solution was also sterile filtered, and 25 mL were retained at room temperature, with the bulk of the solution transferred to ice.
Determination of apparent Tm was performed using thermal melt. 130 AL of the ice-cold ammonium sulfate precipitates of HAB variants MBP-636 (“WT”), ΔN-HAB1^T+, MBP-724, MBP-725, and MBP-726 were pelleted in a microcentrifuge for 5 minutes at 17,000 g.
The supernatant was removed by pipette, discarded, and the pellet resuspended in an equivalent volume of ice-cold CBS^+++. Zeba™ spin desalting columns (Thermo) were equilibrated with CBS^+++ and the resuspended HABs were desalted and placed on ice. Each HAB was diluted to 400 nM concentration in CBS^+++ and aliquoted into PCR tubes at a 50 μL volume. These tubes were distributed into the blocks of a pair of Eppendorf Mastercycler X50i thermocyclers programmed for a thermal gradient as follows (in ° C.): (Machine #1 Gradient 30.0 to 60.0-30.0, 35.4, 39.3, 46.8, 50.6, 54.5, 60.0, Machine #2 Gradient 65.0 to 95.0-65.0, 70.4). The HAB aliquots were held at these temperatures for 30 minutes, followed by cooling to 4° C. in the thermocycler blocks. Once the aliquots had cooled, they were transferred to racks on ice and SO AL of CBSFF^+++ was added, such that each HAB was now at a concentration of 200 nM (10X) in CBSF^+++. The heat treated HAB aliquots were left on ice until the remainder of the labeling reactions were set up, about 1 hour. Labeling reactions were performed, measured, and analyzed as described previously (Steiner et al. 2020).

## CNC(=O)CSP(=S)(OC)OC [dimethoate]
[1]
  affinity of receptors obtained, but not lower: 10 µM

## CC1=CC(=O)CC(C)(C)[C@@]1(O)/C=C/C(C)=C\C(=O)O [ABA, abscisic acid]
PYR1^M/ΔN-HAB1^T+; global nonlinear fit, PYR1^M/ABA/ΔN-HAB1^T+ system, Biorep 1, read-out: KD1
  Kd: 820 nM
PYR1^M/ΔN-HAB1^T+; global nonlinear fit, PYR1^M/ABA/ΔN-HAB1^T+ system, Biorep 2, read-out: KD1
  Kd: 780 nM
PYR1^M/ΔN-HAB1^T+; global nonlinear fit, PYR1^M/ABA/ΔN-HAB1^T+ system, Biorep 3, read-out: KD1
  Kd: 2090 nM
PYR1^M/ΔN-HAB1^T+; global nonlinear fit, KD2 = binding constant of HAB1 variant (ΔN-HAB1^T+) for PYR1^M with ABA, Biorep 1, read-out: KD2
  Kd: 8 nM
PYR1^M/ΔN-HAB1^T+; global nonlinear fit, KD2 = binding constant of HAB1 variant (ΔN-HAB1^T+) for PYR1^M with ABA, Biorep 2, read-out: KD2
  Kd: 4 nM
PYR1^M/ΔN-HAB1^T+; global nonlinear fit, KD2 = binding constant of HAB1 variant (ΔN-HAB1^T+) for PYR1^M with ABA, Biorep 3, read-out: KD2
  Kd: 2 nM
PYR1^M/ΔN-HAB1^T+; PYR1^M/ABA/ΔN-HAB1^T+ system, Biorep 1
  Amax [AU 450 nm]: 2 AU 450 nm
PYR1^M/ΔN-HAB1^T+; PYR1^M/ABA/ΔN-HAB1^T+ system, Biorep 2
  Amax [AU 450 nm]: 2.8 AU 450 nm
PYR1^M/ΔN-HAB1^T+; PYR1^M/ABA/ΔN-HAB1^T+ system, Biorep 3
  Amax [AU 450 nm]: 2 AU 450 nm
PYR1^M/ΔN-HAB1^T+; optimized ELISA-like system, PYR1^M
  lower limit of detection (LOD): 2 nM and 0.7 ng/mL
PYR1^M/ΔN-HAB1^T+; optimized ELISA-like system, PYR1^M, read-out: effective Kd
  Kd: 9.7 nM

## CCOP(=O)(OCC)O/C(=C\Cl)c1ccc(Cl)cc1Cl [chlorfenvinphos]
[1]; after optimization
  affinity of receptors obtained, but not lower: 10 µM

## 724: stabilized dead 6 × His-MBP-ΔN-HAB1 variant with D243A instead of D204A [compound 724]
[2]; Biorep 1
  Phosphatase Activity (% of 636 at 50 mM p-NPP): 0.22 ± 0.005%
[2]; Biorep 2
  Phosphatase Activity (% of 636 at 50 mM p-NPP): 0.01 ± 0.001%
[3]; Biorep 1
  Tm, app (° C.): 54.1 °C
[3]; Biorep 2
  Tm, app (° C.): 44.8 °C

## WT (636): 6 × His-MBP-ΔN-HAB1 (C186S, C274S)
[2]; Biorep 1
  Phosphatase Activity (% of 636 at 50 mM p-NPP): 100 ± 0.4%
[2]; Biorep 2
  Phosphatase Activity (% of 636 at 50 mM p-NPP): 100 ± 0.8%
[3]; Biorep 1
  Tm, app (° C.): 44.8 °C
[3]; Biorep 2
  Tm, app (° C.): 38.1 °C

## 725: 6 × His-MBP-ΔN-HAB1 (C186S, D199A, D204A, S209V, D287E, S292N, S342A, N377A, N439S) [compound 725]
[2]; Biorep 1
  Phosphatase Activity (% of 636 at 50 mM p-NPP): 0.25 ± 0.01%
[2]; Biorep 2
  Phosphatase Activity (% of 636 at 50 mM p-NPP): 0.003 ± 0.004%
[3]; Biorep 1
  Tm, app (° C.): 50.7 °C
[3]; Biorep 2
  Tm, app (° C.): 45.5 °C
